Assay results taken from ChEMBL document CHEMBL3243999, “Novel anxiolytic agents derived from alpha-amino-alpha-phenyl-o-tolyl-4H-triazoles and -imidazoles” (J Med Chem, 1978).

Assays:
Mus musculus [1] = assay: Anticonvulsant activity in ip dosed CF-1 albino mouse assessed as antagonism of pentylenetetrazole-induced clonic convulsions; type: functional
Mus musculus [2] = assay: Sedative activity in ip dosed CF-1 albino mouse assessed as muscle relaxation by measuring depression of traction; type: functional
Mus musculus [3] = assay: Muscle relaxing activity in ip dosed CF-1 albino mouse by chimney test; type: functional
Mus musculus [4] = assay: Muscle relaxing activity in ip dosed CF-1 albino mouse assessed as depression of dish reflexes; type: functional
Mus musculus [5] = assay: Anticonvulsant activity in ip dosed CF-1 albino mouse assessed as antagonism of nicotine-induced tonic extensor convulsions; type: functional
Mus musculus [6] = assay: Anticonvulsant activity in ip dosed CF-1 albino mouse assessed as antagonism of nicotine-induced death; type: functional
Mus musculus [7] = assay: Anticonvulsant activity in ip dosed CF-1 albino mouse assessed as antagonism of thiosemicarbazide-induced lethality; type: functional; details: CF-1, ip
Mus musculus [8] = assay: Anxiolytic activity in ip dosed CF-1 albino mouse assessed as antagonism of electric shock-induced effect; type: functional; details: CF-1, ip
Rattus norvegicus = assay: Anticonvulsant activity in po dosed Sprague-Dawley rat assessed as antagonism of pentylenetetrazole-induced clonic convulsions; type: functional
[9] = Retention time of the compound by GLC-electron capture detection analysis; type: physicochemical
Brain [10] = assay: Drug metabolism in Sprague-Dawley rat brain assessed as triazolam metabolite formation at 20 mg/kg, ip after 0.5 hrs by GLC-electron capture detection analysis; type: ADME, organism-based; design: dose 20 mg/kg, route intraperitoneal; details: in vivo
Brain [11] = assay: Drug metabolism in Sprague-Dawley rat brain assessed as unchanged drug level at 20 mg/kg, ip after 20 mins by GC-MS analysis; type: ADME, organism-based; design: dose 20 mg/kg, route intraperitoneal; details: in vivo
Mus musculus [12] = assay: Drug metabolism in mouse silylated blood assessed as triazolobenzodiazepine metabolite formation at 30 mg/kg, ip after 30 mins by GC-MS analysis; type: ADME, organism-based; design: dose 30 mg/kg, route intraperitoneal; details: in vivo, 0.5 h
Brain [13] = assay: Drug metabolism in mouse brain assessed as un-identified metabolite formation at 20 mg/kg, ip after 0.5 hrs by GLC-electron capture detection analysis; type: ADME, organism-based; design: dose 20 mg/kg, route intraperitoneal; details: in vivo
Brain [14] = assay: Drug metabolism in mouse brain assessed as unchanged drug level at 20 mg/kg, ip after 20 mins by GC-MS analysis; type: ADME, organism-based; design: dose 20 mg/kg, route intraperitoneal; details: in vivo
Mus musculus [15] = assay: Anticonvulsant activity in po dosed CF-1 albino mouse assessed as antagonism of pentylenetetrazole-induced clonic convulsions; type: functional; details: CF-1, po
Brain [16] = assay: Retention time of the compound in mouse brain treated with (5-chloro-2-(3,5-dimethyl-4H-1,2,4-triazol-4-yl)phenyl)(2-chlorophenyl)methanamine at 20 mg/kg, ip after 0.5 hrs by GLC-electron capture detection analysis; type: ADME, organism-based; design: dose 20 mg/kg, route intraperitoneal; details: in vivo
Brain [17] = assay: Drug level in mouse brain treated with (5-chloro-2-(3,5-dimethyl-4H-1,2,4-triazol-4-yl)phenyl)(2-chlorophenyl)methanamine at 20 mg/kg, ip after 20 mins by GC-MS analysis; type: ADME, organism-based; design: dose 20 mg/kg, route intraperitoneal; details: in vivo
Brain [18] = assay: Drug level in Sprague-Dawley rat brain treated with (5-chloro-2-(3,5-dimethyl-4H-1,2,4-triazol-4-yl)phenyl)(2-chlorophenyl)methanamine at 20 mg/kg, ip after 20 mins by GC-MS analysis; type: ADME, organism-based; design: dose 20 mg/kg, route intraperitoneal; details: in vivo
[19] = Mus musculus, CF-1, ip, read-out: ED50

SMILES | ED50 (Mus musculus [1]; [19]) [mg/kg] | ED50 (Mus musculus [2]; [19]) [mg/kg] | ED50 (Mus musculus [3]; [19]) [mg/kg] | ED50 (Mus musculus [4]; [19]) [mg/kg] | ED50 (Mus musculus [5]; [19]) [mg/kg] | ED50 (Mus musculus [6]; [19]) [mg/kg] | ED50 (Mus musculus [7]) [mg/kg] | ED50 (Mus musculus [8]) [mg/kg] | further results
Cc1nnc(C)n1-c1ccc(Cl)cc1C(N)c1ccccc1 (stereo unspecified) | 16 | – | – | – | – | – | – | – | –
Cc1nnc(C)n1-c1ccc(Cl)cc1C(N)c1ccccc1Cl (stereo unspecified) | 1.2 | > 100 | 6.3 | 3.2 | 0.5 | 0.5 | 0.4 | > 100 | ED50 (Rattus norvegicus): > 50 mg/kg; Retention_time [9]: 9 min; Drug metabolism (Brain [10]): metabolite_notdetected; Drug metabolism (Brain [11]): 272 ng; Drug metabolism (Mus musculus [12]): metabolite_detected; Drug metabolism (Brain [13]): metabolite_detected; Drug metabolism (Brain [14]): 65 ng
CC(C)=NC(c1ccccc1Cl)c1cc(Cl)ccc1-n1c(C)nnc1C (stereo unspecified) | 1.2 | > 30 | 6 | 6.6 | 0.75 | 0.85 | 0.34 | – | –
Cc1nnc(CN(C)C)n1-c1ccc(Cl)cc1C(N)c1ccccc1Cl (stereo unspecified) | 0.2 | 1.4 | 0.71 | 0.56 | 0.25 | 0.18 | 0.09 | 40 | ED50 (Mus musculus [15]): 0.6 mg/kg; ED50 (Rattus norvegicus): 4.4 mg/kg
CN/N=C/c1nnc(C)n1-c1ccc(Cl)cc1C(N)c1ccccc1Cl (stereo unspecified) | 1.2 | 20 | 7 | 0.4 | 1.3 | 1.4 | – | > 100 | –
Cc1cn(-c2ccc(Cl)cc2C(N)c2ccccc2Cl)c(C)n1 (stereo unspecified) | – | > 100 | > 100 | 20 | 3.6 | 3.6 | 1.8 | > 100 | –
Br.Cc1nccn1-c1ccc(Cl)cc1C(N)c1ccccc1 (stereo unspecified) | – | 32 | 18 | 16 | 9 | 9 | – | – | –
Cc1nnc(CN)n1-c1ccc(Cl)cc1Cc1ccccc1 | 12.5 | 25 | 18 | 14 | 7 | 6.2 | – | – | –
Cc1nnc(CN(C)C)n1-c1ccc(Cl)cc1C(=O)c1ccccc1Cl | 0.28 | 3.2 | – | 0.25 | 0.14 | 0.14 | 0.02 | 50 | –
Cc1nnc(/C=N/N(C)C)n1-c1ccc(Cl)cc1C(N)c1ccccc1Cl (single isomer, unassigned) | – | – | – | – | – | – | – | – | ED50 (Mus musculus [2]): 50 mg/kg; ED50 (Mus musculus [3]): 16 mg/kg; ED50 (Mus musculus [4]): 7.1 mg/kg; ED50 (Mus musculus [5]): 4 mg/kg; ED50 (Mus musculus [6]): 4 mg/kg; ED50 (Mus musculus [1]): 5.6 mg/kg
Cc1nnc(C2CC2)n1-c1ccc(Cl)cc1C(N)c1ccccc1Cl (single isomer, unassigned; isomer 1) | 40 | > 50 | 40 | – | 2.3 | 2.3 | – | – | ED50 (Mus musculus [4]): 4.5 mg/kg
Cc1nnc(CO)n1-c1ccc(Cl)cc1C(N)c1ccccc1Cl (single isomer, unassigned; isomer 1) | 1.2 | 16 | 0.63 | – | 0.4 | 0.5 | – | – | ED50 (Mus musculus [4]): 1.1 mg/kg; ED50 (Mus musculus [15]): 6.2 mg/kg; ED50 (Rattus norvegicus): > 50 mg/kg
Cc1nnc(/C=N/N(C)C)n1-c1ccc(Cl)cc1C(N)c1ccccc1Cl (single isomer, unassigned; isomer 1) | 8.9 | 71 | 22 | 11.2 | 5.6 | 8 | – | > 100 | –
Cc1nnc(CO)n1-c1ccc(Cl)cc1C(N)c1ccccc1Cl (single isomer, unassigned; isomer 2) | – | – | – | – | – | – | – | – | ED50 (Mus musculus [2]): 8 mg/kg; ED50 (Mus musculus [3]): 0.5 mg/kg; ED50 (Mus musculus [4]): 3.5 mg/kg; ED50 (Mus musculus [5]): 0.3 mg/kg; ED50 (Mus musculus [6]): 0.3 mg/kg; ED50 (Mus musculus [1]): 1 mg/kg
Cc1nnc(C2CC2)n1-c1ccc(Cl)cc1C(N)c1ccccc1Cl (stereo in doubt; 21b) | – | – | – | – | – | – | – | – | ED50 (Mus musculus [2]): >100 mg/kg; ED50 (Mus musculus [3]): 56 mg/kg; ED50 (Mus musculus [4]): 40 mg/kg; ED50 (Mus musculus [5]): 2.8 mg/kg; ED50 (Mus musculus [6]): 2 mg/kg; ED50 (Mus musculus [1]): >50 mg/kg
Cc1nnc2n1-c1ccc(Cl)cc1C(c1ccccc1)=NC2 [ALPRAZOLAM] | – | – | – | – | – | – | – | – | Retention_time [9]: 12 min
CN1C(=O)CN=C(c2ccccc2)c2cc(Cl)ccc21 [DIAZEPAM] | 0.8 | 5 | – | 0.31 | 0.11 | 0.11 | 0.2 | 20 | ED50 (Rattus norvegicus): 4.8 mg/kg
Cc1nnc2n1-c1ccc(Cl)cc1C(c1ccccc1Cl)=NC2 [TRIAZOLAM] | 0.04 | 0.7 | 0.056 | 0.1 | 0.04 | 0.04 | 0.028 | 23 | ED50 (Rattus norvegicus): 0.18 mg/kg; Retention_time [9]: 15 min; Retention_time (Brain [16]): 15 min; Drug metabolism (Brain [17]): 190 ng; Drug metabolism (Brain [18]): 4 ng
